The target of test [1] is T1, TbPDE2A (Trypanosoma brucei, UniProt Q9GTN9). The experiment in a line: Phosphodiesterase assay, recombinant TbPDE2A in yeast lysates. The class given is biochemical. Particulars: for effect on TbPDE2A activity in initial screening: 100 μM inhibitor, FIG. 26; for effect on TbPDE2A activity in initial screening / IC50 / IC50 for TbPDE2A (μM): 1 μM cAMP; for IC50 / IC50 for TbPDE2A (μM): full-size TbPDE2A, yeast lysates. As to the method: Yeast cell lysis. Yeast cells grown to mid- to end-log phase in SC-leu medium were collected, resuspended quickly in an original volume of prewarmed YPD medium and incubated for an additional 3 h at 30° C. in order to maximize protein expression. Cells were then harvested, washed once in water and once in HBBB buffer (Hank's balanced salt solution, containing 50 mM HEPES, pH 7.5). The washed cell pellet was suspended in an equal volume of HBB containing a protease inhibitor cocktail (Complete™, Roche Molecular Biochemicals). […] The cell lysate was clarified by centrifugation for 15 min at 15,000×g.
T1 sequence (Q9GTN9 entry or part of it): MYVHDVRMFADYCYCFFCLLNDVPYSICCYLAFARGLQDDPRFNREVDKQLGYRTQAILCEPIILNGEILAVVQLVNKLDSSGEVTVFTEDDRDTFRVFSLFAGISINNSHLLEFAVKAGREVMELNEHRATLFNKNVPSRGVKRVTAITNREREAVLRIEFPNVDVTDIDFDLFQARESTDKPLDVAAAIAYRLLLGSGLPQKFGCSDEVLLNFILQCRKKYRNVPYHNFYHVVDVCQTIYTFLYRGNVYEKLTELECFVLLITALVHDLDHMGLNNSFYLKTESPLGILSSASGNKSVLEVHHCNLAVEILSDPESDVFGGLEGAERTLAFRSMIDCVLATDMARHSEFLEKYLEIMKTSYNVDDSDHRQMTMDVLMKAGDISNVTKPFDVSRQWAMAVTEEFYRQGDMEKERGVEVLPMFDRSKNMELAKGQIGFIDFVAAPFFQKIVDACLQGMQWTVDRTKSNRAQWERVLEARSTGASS
Phosphodiesterase Assay. […] […] Incubation was at 30° C. for 20 min. […] The precipitates were filtered through GF-C glass fiber fitters and filters were washed 3 times with ice-cold 1 mM NaOH/100 mM NaCl and were then dried and counted in liquid scintillation fluid (4 g/I omnifluor in toluene). All assays were carried out in triplicates and with three independent enzyme preparations. Controls for the efficiency of precipitation of cAMP and of AMP were always included. When assaying yeast cell extracts, control lysates from the PDE deletion strains transfected with empty vector was used as a background control. […] Inhibitors were dissolved in DMSO or ethanol, and the final concentration of the solvent never exceeded 1% in the assays reaction. Incubation times and enzyme concentrations were always adjusted so that less than 30% of the input substrate was hydrolyzed (2-5 μg total protein/100 μl assay). IC50 values were calculated by curve fitting on a four parameter dose-response model with variable slope, using the Prism software package of Graph Pad Inc., San Diego, Calif.

In test [2] the target is TbPDE2B (Trypanosoma brucei, UniProt Q9GQU6). The experiment in a line: Phosphodiesterase assay, recombinant TbPDE2B expressed in HEK 293 cells. The class given is biochemical. As to conditions: for inhibition of recombinant TbPDE2B, in words: 1 μM [3H] cAMP, cGMP up to 200 μM. As to the method: Expression of T. brucei PDE. The ORF sequence for T. brucei PDE was subcloned into the pcDNA 3.1-TOPO vector (Invitrogen) according to the manual (Eukaryotic TOPO TA Cloning, version C) and plasmid DNA purified as described above. Human embryonic kidney 293 (HEK 293) cells were transfected with 12 μg of DNA in 60 μl of GenePORTER Transfection Reagent (Gene Therapy Systems, San Diego, Calif.) in 100-mm dishes and kept at 37° C. in 5% CO2 for 24 h. After this period fresh medium was added, and incubated under the same conditions for an additional 24 h. The same amount of pcDNA vector containing the sequence for the Green Fluorescent Protein (GFP) was transfected under identical conditions as a positive control for expression and as a negative control for PDE activity. Two plates were harvested at a time and homogenized with 1 ml of homogenization buffer containing 40 mM Tris-HCl, pH 7.5; 15 mM benzamidine; 15 mM 2-mercaptoethanol; 1 μg/ml pepstatin A; 1 μg/ml leupeptin and 5 mM EDTA. The cell suspension was immediately subjected to sonication (3×5 s) on ice. One volume of glycerol and 1 mg/ml of bovine serum albumin were added immediately to the homogenate.
Sequence of TbPDE2B (Q9GQU6 entry or part of it): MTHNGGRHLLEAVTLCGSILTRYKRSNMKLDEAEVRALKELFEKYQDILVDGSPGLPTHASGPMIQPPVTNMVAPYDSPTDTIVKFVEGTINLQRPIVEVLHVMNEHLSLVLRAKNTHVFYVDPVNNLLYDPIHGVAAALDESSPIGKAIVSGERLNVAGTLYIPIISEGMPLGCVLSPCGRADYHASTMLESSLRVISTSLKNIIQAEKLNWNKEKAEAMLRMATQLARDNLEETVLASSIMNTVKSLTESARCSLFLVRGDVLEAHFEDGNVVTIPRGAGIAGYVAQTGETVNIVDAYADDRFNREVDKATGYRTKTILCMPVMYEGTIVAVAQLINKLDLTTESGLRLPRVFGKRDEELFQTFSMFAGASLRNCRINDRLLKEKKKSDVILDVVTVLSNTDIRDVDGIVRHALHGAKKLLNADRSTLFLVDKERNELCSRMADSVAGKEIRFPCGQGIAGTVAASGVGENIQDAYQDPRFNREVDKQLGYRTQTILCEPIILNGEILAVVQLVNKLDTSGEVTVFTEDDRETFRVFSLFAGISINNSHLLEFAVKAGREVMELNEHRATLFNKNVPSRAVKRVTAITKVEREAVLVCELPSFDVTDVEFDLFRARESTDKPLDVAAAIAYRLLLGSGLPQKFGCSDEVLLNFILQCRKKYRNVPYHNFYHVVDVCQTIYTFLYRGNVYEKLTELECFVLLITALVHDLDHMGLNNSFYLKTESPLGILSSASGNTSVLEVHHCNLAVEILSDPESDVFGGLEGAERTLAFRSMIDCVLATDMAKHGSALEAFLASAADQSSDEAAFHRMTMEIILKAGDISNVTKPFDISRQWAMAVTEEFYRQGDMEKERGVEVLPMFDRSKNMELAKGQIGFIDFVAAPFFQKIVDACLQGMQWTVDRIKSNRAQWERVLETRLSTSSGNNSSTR
Phosphodiesterase assay. […]

Test [3] relates to total PDE activity of trypanosomal cell extracts. Kind of test: Total PDE activity in trypanosomal cell extracts. The class given is biochemical, Trypanosoma brucei. From the text: Chemical validation of the TbPDE2 family as a potential drug target. One of the novel PDEs of the invention, TbPDE2A, was expressed as a recombinant protein and was characterized in detail (see above). […].

Test [4] has as its system PDE7A. Kind of test: RT-PCR of PDE7A upregulation in CD3/CD28-stimulated CD4+ T cells. As to conditions: 1 hour after stimulation; FIG. 2C. The class given is cell-based, human.
Test [5] deals with PDE8A. The experiment in a line: RT-PCR of PDE8A upregulation in CD3/CD28-stimulated CD4+ T cells. The class given is cell-based, human. As to conditions: after CD3 and CD28 stimulation; FIG. 2C, 2D. As to the method: Peripheral blood mononuclear cells were isolated from one human buffy coat (50 mL) by centrifugation through a layer of Ficoll-Paque Plus (2000 rpm, 30 min). Cells from the interface were removed and further purified by negative selection. CD4^+ T cells were usually isolated using a mixture of monoclonal antibodies (CD8, CD16, CD20, CD25 and HLADr) and goat anti-mouse IgG conjugated to magnetic beads according to the manufacturers protocol (Dynal, Lake Success, N.Y.). In some cases the CD4^+ T cell isolation kit was used in combination with the CD69 microbead kit (to remove activated cells). The labeled cells were removed by passage through a CS column (Miltenyi Biotec, Auburn, Calif.) placed in a magnetic field. The CD4^+ T cells passing through the column (at least 98% pure as determined by FACS analysis) were resuspended in RPMI/10% FBS/pen/strep/glutamine medium. The cells were stimulated as follows. Plates (Corning, Acton, Mass.) were precoated with goat anti-mouse IgG (10 μg/mL) for 2 hours at 37° C. and then washed with PBS. Cells were added to the plate together with CD3 (0.01 μg/mL) and CD28 (0.1 ug/mL) monoclonal antibodies and were harvested at various time points. The presence of PDE8A protein and RNA in activated CD4^+ T cells was detected by Western blotting and RT-PCR (see example 3). […]

The test system of test [6] is PDEs (Non-selective). Particulars: read-out: PDE Selectivity (IC50); cited from earlier work.
Test [7] has as its target T1, TbPDE2A. Particulars: Table 2, from reference; cited from earlier work.
For test [8], the system named is PDE8A and PDE7A from hut78 cells. The experiment in a line: PDE activity of monoQ HPLC fractions of hut78 cells, low Km peak. The class given is biochemical, human. As to conditions: 0.01 μM cAMP; 10 μM rolipram or 100 μM IBMX. On the procedure: Since pure CD4^+ T cells can only be obtained in limited quantities, a human CD4^+ T cell line, hut78, (ATCC, Manassas, Va.), was used to study the activity of PDE8A. Hut78 cells (2×10^8) were resuspended in 20 mM Tris pH 7.5 buffer containing protease inhibitors (Boehringer Mannheim, Indianapolis, Ind.) and sonicated. The supernatant was removed after centrifugation at 15000×g for 10 minutes and applied to a Mono Q column attached to a Rainin Dynamax HPLC system (Ameryville, Calif.). A NaCl gradient (0-0.8M) was passed through the column and 250 uL fractions were collected. The fractions were assayed for activity using either 1 μM or 0.01 μM cAMP as substrate and the indicated concentration of inhibitor (FIG. 5). Western blot analysis was also performed (10 μL/well) using PDE7A or 8A antibodies.

Test [9] concerns endogenous PDE activity from the HEK 293 cells. Kind of test: Endogenous PDE activity from HEK 293 cells. The class given is biochemical, human. Particulars: lowest concentration used (10 μM). The source says: Phosphodiesterase assay. […] […]
The subject of test [10] is PDE 4. Particulars: read-out: PDE Selectivity (IC50); cited from earlier work.
Test [11] relates to PDE 6. As to conditions: read-out: PDE Selectivity (IC50); cited from earlier work.

Values joined by “and” are separate entries in the source; they are usually repeats but may differ in a detail not shown here. Identical values can stand only once. Like-named read-outs stand apart in the source and are kept apart here.

The text below walks through data of patent US7598067B2, “PDEs and uses thereof” (priority 2000, dated 2009).

Regarding `COCc1nc2c([nH]1)c(=O)n(C)c(=O)n2CC(C)C` [8-methoxymethyl-IBMX], in test [1], the “effect on TbPDE2A activity in initial screening” value (shortened to “effect on TbPDE2A activity”) was “only very little effect”.
Take `CN(C(=O)CCCOc1ccc2[nH]c(=O)ccc2c1)C1CCCCC1` [Cilostamide, cilostamide]: in test [1], the “effect on TbPDE2A activity” value is listed as “only very little effect” and the IC50 (usually the concentration at which inhibition is half-maximal) is more than 100 µM.
Turning to `CCCCCCC(C(C)O)n1cnc2c(N)ncnc21` (stereo not drawn) [EHNA, erythro-9-[3-(2-hydroxynonyl)]-adenine], in test [2], the IC50 is more than 180 µM and the “inhibition of recombinant TbPDE2B, in words” value (from here on “inhibition”) is recorded as “No IC50 could be obtained”.
On to `CCOC(=O)c1cnc2c(cnn2CC)c1NN=C(C)C` [Etazolate, etazolate], for which the IC50 amounted to 30.3 µM in [1] and 127 µM in test [2].
For the molecule `CCOc1ccc(Cc2nccc3cc(OCC)c(OCC)cc23)cc1OCC` [Ethaverine], in test [1], the “effect on TbPDE2A activity” value is “significantly more effective as an inhibitor of TbPDE2A than its parent compound papaverine”; the IC50 was 14 µM and 14.2 µM; the “IC50 for TbPDE2A (μM)” value is listed as “low micromolar range”. In [3], the “total PDE activity” value is “marked, if not complete, reduction”.
With `CC(C)(C)n1nc(-c2ccc(Cl)cc2)c2c(N)ncnc21` [PP2], the PDE7A upregulation entry in [4] was “reduction of PDE7A upregulation”. For the same molecule, the PDE8A upregulation entry in test [5] is recorded as “greatly reduced”.
Consider `COc1ccc(Cc2nccc3cc(OC)c(OC)cc23)cc1OC` [Papaverine, papaverine], for which, in [1], the “effectiveness on TbPDE2A, in words” value was “only marginal activity”. Also, the figures for the 50% inhibitory concentration (IC50) in test [6] and in test [2] were 5 to 25 µM and 304 ± 19 µM, respectively. Besides, the “inhibition” value in test [2] is given as “extremely low sensitivity”.
For the molecule `CC(=O)CCCCn1c(=O)c2c(ncn2C)n(C)c1=O` [Pentoxifylline, pentoxifylline], the IC50 in test [6] is 45 to 150 µM. Further, in test [2], the half-inhibitory concentration (IC50) was more than 800 µM and the “inhibition” value is on record as “extremely low sensitivity”.
As for `COc1ccc(C2CNC(=O)C2)cc1OC1CCCC1` (stereo not drawn) [Rolipram, rolipram], the “effect on TbPDE2A activity” value in test [1] is “no appreciable activity”. Further, the 50% inhibitory concentration (IC50) in test [1] is more than 100 µM; in test [7], more than 100 µM; in test [2], more than 300 µM; in [10], […]. Also, the “sensitivity of the PDE activity peak” value in test [8] is given as “resistant”. Besides, the “endogenous PDE activity from the HEK 293 cells” value in [9] is “completely abolished”. In [2], the “inhibition” value was “No inhibition”.
As to `CCCc1nn(C)c2c(=O)[nH]c(-c3cc(S(=O)(=O)N4CCN(C)CC4)ccc3OCC)nc12` [Sildenafil, sildenafil], in test [1], the IC50 was found to be 9.4 µM and the “IC50 for TbPDE2A (μM)” value was “low micromolar range”. For the same molecule, in [3], the “total PDE activity” value was “marked, if not complete, reduction”. Further, in [2], the IC50 is more than 100 µM and the “inhibition” value was “No IC50 could be obtained”.
`Cn1c(=O)c2[nH]cnc2n(C)c1=O` [Theophylline, theophylline]: in [1], the “effectiveness on TbPDE2A, in words” value is recorded as “not effective” and the half-maximal inhibitory concentration (IC50) was more than 100 µM.
Regarding `COc1cc2c(cc1OC)-c1c/c(=N\c3c(C)cc(C)cc3C)n(C)c(=O)n1CC2` [Trequinsin], in [1], the IC50 was 5.4 µM and the “IC50 for TbPDE2A (μM)” value is on record as “low micromolar range”. For the same molecule, in test [3], the “total PDE activity” value was “marked, if not complete, reduction”.
Turning to `CCOC(=O)C1=C[C@]2(CC)CCCN3CCc4c(n1c1ccccc41)[C@@H]32` [Vinpocetine, vinpocetine], in test [1], the “effect on TbPDE2A activity” value is given as “only very little effect” and the concentration for half-maximal inhibition (IC50) is more than 100 µM.
Consider `CCCOc1ccccc1-c1nc2nn[nH]c2c(=O)[nH]1` [Zaprinast, zaprinast], for which the “effect on TbPDE2A activity” value in test [1] was “only very little effect”. For the same molecule, the IC50 in test [1] is 42.4 µM; in [7] it was 42.5 µM; in [11] it was 150 nM; in test [2], more than 50 µM. Besides, in [2], the “inhibition” value is “No IC50 could be obtained”.
For the molecule `Cc1[nH]c(=O)c(C#N)cc1-c1ccncc1` [milrinone], the “effect on TbPDE2A activity” value in test [1] is given as “only very little effect”.
With Ro 20-1724, the “endogenous PDE activity from the HEK 293 cells” value in [9] is given as “completely abolished”. In addition, the “inhibition” value in test [2] was “No inhibition”. Besides, the IC50 in test [2] (Substrate concentration 1 μM [3H]-cAMP, read-out: TbPDE2B IC50 (μM) (n = 3)) is more than 300 µM; in test [10] it was 2000 nM.
